Data on seven compounds can be found in PMC10343887, “Structural Optimization of BIPPO Analogs as Potent Antimalarials” (Molecules, 2023).

One series relates to human MRC-5 cells. Briefly: Non-specific toxicity control on human MRC-5 cells. It is filed as cell-based.
For another series, the system named is P. falciparum. Briefly: Antimalarial screening against asexual blood stage P. falciparum. In kind it is cell-based, Plasmodium falciparum. As to conditions: for P. fal pIC50 / IC50: potency against asexual blood stage of P. falciparum, average values n ≥ 2, s.d. < 0.3; for fold potency decrease compared with 30: relative to 30; for IC50: Plasmodium falciparum, read-out: P. fal pIC50 (converted). How it is done: Previously, Howard et al. reported (sub)micromolar activity against P. falciparum for a series of BIPPO analogs with benzyl substituents. To further understand the structure–activity relationship (SAR) of this interesting scaffold, close analogs of 3 with substituents at R^1–R^4 positions were tested against P. falciparum and human MRC-5 cells as the control for non-specific toxicity (Table 1).
The assay for antimalarial activity was carried out as described in detail in Pereira et al..

Series [1] is described as follows: Non-specific toxicity control on human MRC-5 cells. The settings on record: human MRC-5 cells; average values n ≥ 2, s.d. < 0.3; read-out: MRC-5 pIC50 (converted). It is filed as cell-based.
Series [2] can be described thus: Metabolic stability in mouse liver microsomes (S9 fraction). In kind it is in vitro ADME. As to conditions: for parent compound left: one hour of incubation; for metabolic stability relative to diclofenac: mouse Phase I assay. The procedure:
(§1) Thus, compounds 23, 28–30, 47a and 47b with high potencies (pIC50 > 6) were evaluated for their in vitro metabolic stability in human and mouse liver microsomes (S9 fraction) with diclofenac as a reference compound. As summarized in Figure 2, substituents in the R^4 position affect metabolic stability. […] Their stability against mouse liver microsomes is lower, especially for their Phase I metabolism; only 38% and 26% of the parent compounds are left for 23 and 29 after one hour of incubation. […] For the adamantanyl analogs 30, 47a and 47b, metabolic stability differs drastically, with Phase I identified as the main metabolic pathway. Analog 47b was metabolized for >95% within 30 min with mouse liver microsomes, while 90% of 47a (tert-butyl analog) was left after one hour of incubation.
(§2) The assay for metabolic stability in human and mouse liver microsomal fractions (S9) was performed as described.

Series [3] can be described thus: Metabolic stability in human liver microsomes (S9 fraction). In kind it is in vitro ADME. The settings on record: one hour incubation, Phase I and Phase II metabolism. The procedure: as §1, §2
Setting [4] is: mouse liver microsomes, phase not given.
The mark [5] stands for this setting: mouse liver microsomes, Phase I metabolism.

Take “5-(Benzyloxy)-3-isopropyl-1,6-dihydro-7H-pyrazolo[4,3-d]pyrimidin-7-one [compound 5]”: the “MRC-5 pIC50” value in the series on human MRC-5 cells (human MRC-5 cells, average values n ≥ 2, s.d. < 0.3) was below 4.2. For the same compound, the “fold decreased antimalarial potency compared to 3” value in the series with P. falciparum (P. falciparum, relative to 3) is 5- to 25 fold. In the series on P. falciparum, the “P. fal pIC50” value was 5.2.

Take `CC(C)(C)c1n[nH]c2c(=O)[nH]c(C34CC5CC(CC(C5)C3)C4)nc12` [47a, 5-(Adamantan-1-yl)-3-(tert-butyl)-1,6-dihydro-7H-pyrazolo[4,3-d]pyrimidin-7-one]: the IC50 in series [1] was above 63.1 µM. Also, in the series on P. falciparum (P. falciparum), the “fold potency decrease compared with 30” value worked out at 4 fold. The “metabolic stability in mouse liver microsomes (in words)” value (“metabolic stability … (in words)” for short) in series [2] (mouse liver microsomes) was “favorable metabolic stability”. Besides, in series [2] (setting [4]), the parent compound left is 90%.

With `O=c1[nH]c(C23CC4CC(CC(C4)C2)C3)nc2c(C3CCCC3)n[nH]c12` [47b, 5-(Adamantan-1-yl)-3-cyclopentyl-1,6-dihydro-7H-pyrazolo[4,3-d]pyrimidin-7-one], in series [1], the IC50 was above 63.1 µM. Further, the “fold potency decrease compared with 30” value in the series on P. falciparum (P. falciparum) was found to be 2.5 fold. Moreover, in the series with P. falciparum, the IC50 was below 1 µM and the “P. fal pIC50” value is on record as 6.2. The “metabolic stability relative to diclofenac” value in series [2] is listed as “metabolized faster than diclofenac”. The same compound registered a metabolized in series [2] (mouse liver microsomes, within 30 min) above 95%.

`CC(C)c1n[nH]c2c(=O)[nH]c(C3CCCCC3)nc12` [compound 23, 5-Cyclohexyl-3-isopropyl-1,6-dihydro-7H-pyrazolo[4,3-d]pyrimidin-7-one]: in series [1], the IC50 was above 63.1 µM. Also, in series [3], the parent compound remaining entry is “more than 50%”. Further, the “fold potency increase compared with 3” value in the series with P. falciparum (P. falciparum, relative to 3) was “five”. The “metabolic stability relative to diclofenac” value in series [2] was “metabolized faster than diclofenac”. Also, the “metabolic stability … (in words)” value in series [2] (mouse liver microsomes) is listed as “favorable metabolic stability”. Further, in series [2] (setting [5]), the parent compound left was determined as 38%.

`CC(C)c1n[nH]c2c(=O)[nH]c(C3CCC(F)(F)CC3)nc12` [compound 28, 5-(4,4-Difluorocyclohexyl)-3-isopropyl-1,6-dihydro-7H-pyrazolo[4,3-d]pyrimidin-7-one]: the IC50 in series [1] was above 63.1 µM. Moreover, the parent compound remaining result in series [3] was “more than 50%”. Also, in the series with P. falciparum, the IC50 is below 1 µM and the “P. fal pIC50” value turned out to be 6.0. For the same compound, the “metabolic stability … (in words)” value in series [2] (mouse liver microsomes) is “favorable metabolic stability”. For the same compound, the parent compound left in series [2] (setting [4]) was found to be 68%.

Consider `CC(C)c1n[nH]c2c(=O)[nH]c(C34CCC(CC3)CC4)nc12` [compound 29, 5-(Bicyclo[2.2.2]octan-1-yl)-3-isopropyl-1,6-dihydro-7H-pyrazolo[4,3-d]pyrimidin-7-one], for which the IC50 in series [1] is above 63.1 µM. The parent compound remaining result in series [3] is “more than 50%”. In addition, the “metabolic stability relative to diclofenac” value in series [2] is on record as “metabolized faster than diclofenac”. Further, the “metabolic stability … (in words)” value in series [2] (mouse liver microsomes) was “favorable metabolic stability”. Also, in series [2] (setting [5]), the parent compound left is given as 26%.

Turning to `CC(C)c1n[nH]c2c(=O)[nH]c(C34CC5CC(CC(C5)C3)C4)nc12` [compound 30, 5-(Adamantan-1-yl)-3-isopropyl-1,6-dihydro-7H-pyrazolo[4,3-d]pyrimidin-7-one], the IC50 in series [1] was above 63.1 µM. For the same compound, in the series on human MRC-5 cells, the “toxicity for human MCR-5 cells (in words)” value is given as “without showing noticeable toxicity”. In addition, the “fold potency increase compared with 3” value with P. falciparum (P. falciparum, relative to 3) is “eight”. For the same compound, in series [2], the “metabolic stability relative to diclofenac” value was “metabolized faster than diclofenac”.
